One data set deals with Aphidius rhopalosiphi. In words: LR50; higher = less toxic. As to conditions: not reported; mortality.
A further data set deals with Typhlodromus pyri. Kind of data set: LR50; higher = less toxic. As to conditions: not reported; mortality.
A further data set concerns Apis mellifera. As to conditions: acute, mortality.
A further data set deals with Daphnia magna. As to conditions: chronic/long-term; duration: 21 days; reproduction.
The test system of a further data set is Canidae. As to conditions: chronic; duration: 52 weeks; oral; Dog Other; organ weight.
Another data set relates to Neomysis kadiakensis. As to conditions: mortality.
The next data set relates to Bibionidae. The note with it: chronic/long-term; duration: 28 days; reproduction.
The subject of another data set is Pimephales promelas. The note with it: chronic/long-term; duration: 32 days; reproduction.
A further data set relates to Oncorhynchus mykiss. As to conditions: acute; duration: 96 hours; mortality.

Structures are written as SMILES. Converted amounts (≈) assume the structure as drawn. Where only a bound is given, the exact number is not on record here.

The NOAEL is the highest tested level that showed no adverse finding. The term LOAEL denotes the lowest tested level that showed an adverse finding. Take `CNC(=O)C(OC)c1ccccc1COc1cc(C)ccc1C` (centres undefined) [Mandestrobin]: the LR50 in the data set with Aphidius rhopalosiphi and in the data set on Typhlodromus pyri was above 1000 g/ha each time. For the same compound, the LD50 with Apis mellifera (dermal) is above 100 µg/piece; in the data set with Apis mellifera (oral, unspecified), above 111 µg/piece; with Rattus norvegicus (acute, oral, mortality), above 200 mg/kg-day; in the data set with Colinus virginianus (acute, oral, mortality) it was above 2250 mg/kg-day. The LC50 is 84 mg/kg with Tagia sp. (acute, duration: 14 days, mortality); 0.43 µg/mL (≈ 1.37 µM) in the data set on Neomysis kadiakensis (acute, duration: 96 hours); 0.84 µg/mL (≈ 2.68 µM) with Oncorhynchus mykiss; above 1340 mg/kg-day in the data set with Colinus virginianus (acute, duration: 8 days, oral, diet, mortality). For the same compound, the NOEC amounted to 3.75 mg/kg in the data set with Tagia sp. (chronic/long-term, duration: 56 days); 0.56 mg/L in the data set with Daphnia magna; 0.0036 mg/L in the data set with Neomysis kadiakensis (chronic/long-term, duration: 36 days); 8.1 mg/L in the data set with Bibionidae; 0.15 mg/L in the data set on Pimephales promelas; 91.1 mg/kg-day in the data set on Colinus virginianus (reproduction developmental, duration: 21 weeks, reproduction). For the same compound, the values for the no observed adverse effect level (NOAEL) with Canidae and in the data set with Rattus norvegicus (reproduction developmental) were 19 mg/kg-day and 163 mg/kg-day, respectively. The compound further yielded an LOAEL in the data set with Rattus norvegicus (reproduction developmental, organ weight) of 60.2 mg/kg-day.
